# Laboratory results published in patent US20060019284A1, “Identification of polynucleotides for predicting activity of compounds that interact with and/or modulate protein tyrosine kinases and/or protein tyrosine kinase pathways in lung cancer cells” (priority 2004, published 2006).
# What was measured:
# [1] = test system: H838 lung cell line; assay: In vitro cytotoxicity assay (MTS), IC50 determination; assay type: cell-based, human; settings: H838 cells
# Protocol: (§1) Cytotoxicity was assessed in cells by the MTS (3-(4,5-dimethylthiazol-2-yl)-5-(3-carboxy-methoxyphenyl)-2-(4-sulphenyl)-2H-tetrazolium, inner salt) assay (T. L. Riss et al., 1992, Mol. Biol. Cell, 3 (Suppl.): 184a).
# (§2) To carry out the assays, the lung cells were plated at 4,000 cells/well in 96 well microtiter plates, and 24 hours later, serially diluted drugs were added. The concentration range for the protein tyrosine kinase inhibitor compound BMS-A used in the cytotoxicity assay was from 5 μg/ml to 0.0016 μg/ml (roughly 10 μM to 0.0032 μM).
# (§3) The cells were incubated at 37° C. for 72 hours at which time the tetrazolium dye, MTS (333 μg/ml final concentration), in combination with the electron coupling agent phenazine methosulfate (25 μM final concentration), was added. A dehydrogenase enzyme in live cells reduces the MTS to a form that absorbs light and can be quantified spectrophotometrically at 492 nM. The greater the absorbency the greater the number of live cells. The results are expressed as an IC50, which is the drug concentration required to inhibit cell proliferation (i.e. absorbance at 492 nm) to 50% of that of untreated control cells. The mean IC50 and standard deviation (SD) from multiple tests for each cell line were calculated.
# (§4) The mean IC50 of the BMS-A protein tyrosine kinase inhibitor compound across the 23 human lund cell lines was calculated. […]
# [2] = test system: panel of twenty-three human lung cell lines; assay: In vitro cytotoxicity assay (MTS), whole panel; assay type: cell-based; settings: across the 23 lung cell lines
# Protocol: as §1, §2, §3, §4
# [3] = test system: SK-MES-1 lung cell line; assay: In vitro cytotoxicity assay (MTS), IC50 determination; settings: SK-MES-1 cells
# Protocol: as §1, §2, §3, §4
# [4] = test system: H1155 lung cell line; assay: as above; assay type: cell-based, human; settings: H1155 cells, 72 hours, mean of 3 tests, read-out: Mean IC50 (uM) to BMS-A
# Protocol: as §1, §2, §3, §4
# [5] = test system: L2987 lung cell line; assay: as above; assay type: cell-based, human; settings: L2987 cells
# Protocol: as §1, §2, §3, §4
# [6] = test system: H2347 lung cell line; assay: as above; assay type: cell-based, human; settings: H2347 cells, 72 hours, mean of 4 tests, read-out: Mean IC50 (uM) to BMS-A
# Protocol: as §1, §2, §3, §4
# [7] = test system: H226 lung cell line; assay: as above; assay type: cell-based, human; settings: H226 cells
# Protocol: as §1, §2, §3, §4
# [8] = test system: H23 lung cell line; assay: as above; assay type: cell-based, human; settings: H23 cells, 72 hours, mean of 4 tests, read-out: Mean IC50 (uM) to BMS-A
# Protocol: as §1, §2, §3, §4
# [9] = test system: Sk-LU-1 lung cell line; assay: as above; assay type: cell-based, human; settings: Sk-LU-1 cells
# Protocol: as §1, §2, §3, §4
# [10] = test system: SW1271 lung cell line; assay: as above; assay type: cell-based, human; settings: SW1271 cells
# Protocol: as §1, §2, §3, §4
# [11] = test system: H522 lung cell line; assay: as above; assay type: cell-based, human; settings: H522 cells
# Protocol: as §1, §2, §3, §4
# [12] = test system: NCI-H596 lung cell line; assay: as above; assay type: cell-based, human; settings: NCI-H596 cells
# Protocol: as §1, §2, §3, §4
# [13] = test system: A549 cells; assay: Drug (BMS-A) treatment of A549 cells and expression profiling (HG-U133 arrays); assay type: cell-based, human; settings: A549, 0.4 μM, 4 and 24 hours
# Protocol: To identify polynucleotides regulated by a protein tyrosine kinase inhibitor compound, e.g., BMS-A, a lung cell line A549 was treated with or without the BMS-A compound (0.4 μM) in 0.1% DMSO for 4 and 24 hours. Expression profiling was performed, and the data were analyzed using GeneChip® Expression Analysis software MAS 5.0 (Affymetrix, Santa Clara, Calif.). The polynucleotide expression of a cell line treated with drug was compared using pair-wise analysis to the polynucleotide expression of the cell line without drug treatment. A change in p-value was calculated, indicating an increase, decrease or no change in polynucleotide expression. When the p-value was less than 0.0025, the change was considered significant. Duplicated experiments were performed, and analysis of 4 cross comparisons were performed.
# The lung cells were grown under standard cell culture conditions: RPMI 1640 supplemented to contain 10% fetal bovine serum, 100 IU/ml penicillin, […] streptomycin, 2 mM L-glutamine and 10 mM Hepes (all from GibcoBRL, Rockville, Md.). RNA was isolated from the cultured cells, either treated or untreated with drug (i.e., the protein tyrosine kinase inhibitor compound) at 50-70% confluence using the RNeasy™ kits commercially available from Qiagen, Valencia, Calif. The quality of the RNA was assessed by measuring the 28s:18s ribosomal RNA ratio using an Agilent 2100 bioanalyzer (Agilent Technologies, Rockville, Md.). The concentration of total RNA was determined spectrophotometrically. 10 μg of total RNA from each cell line was used to prepare biotinylated probe according to the Affymetrix Genechip® Expression Analysis Technical Manual, 2001. Targets were hybridized to Affymetrix high density oligonucleotide array human HG-U133 set chips (Affymetrix, Santa Clara, Calif.). The arrays were then washed and stained using the GeneChip® Fluidics station according to the manufacture's instructions (Affymetrix Genechip® Technical Manual, 2001). The HG-U133 set contains 2 Genechip® arrays, which contain approximately 45,000 probe sets representing more than 39,000 transcripts derived from approximately 33,000 well-substantiated human polynucleotides.
# A549 cells were seeded in a 10 cm^2 culture plate in cell culture medium as described herein and were cultured for 24 hours at 37° C. The medium was then changed to medium containing drug (0.4 μM BMS-A compound in 0.1% DMSO, Sigma); the cells were incubated for 4 hour or 24 hours, and then lysed for RNA isolation. The expression profiling was performed as described above and data were analyzed using GeneChip® Expression Analysis software MAS 5.0 (Affymetrix, Santa Clara, Calif.). The expression data of a drug treated cell line was compared pair-wise to data from the same cell line untreated with drug. A change in p-value was calculated, indicating an increase, decrease or no change in polynucleotide expression. When the p-value was less than 0.0025, the change was considered to be significant. This analysis was performed for duplicated experiments
# [14] = test system: H661 lung cell line; assay: In vitro cytotoxicity assay (MTS), IC50 determination; assay type: cell-based, human; settings: H661 cells
# Protocol: as §1, §2, §3, §4
# [15] = test system: H441 lung cell line; assay: as above; assay type: cell-based, human; settings: H441 cells
# Protocol: as §1, §2, §3, §4
# [16] = test system: SW900 lung cell line; assay: as above; assay type: cell-based, human; settings: SW900 cells
# Protocol: as §1, §2, §3, §4
# [17] = MTS, 72 hours, mean of 4 tests, read-out: Mean IC50 (uM) to BMS-A
# [18] = IC50 relative to mean IC50 of all 23 cell lines
# [19] = MTS, 72 hours, mean of 3 tests, read-out: Mean IC50 (uM) to BMS-A
# [20] = MTS, 72 hours, mean of 2 tests, read-out: Mean IC50 (uM) to BMS-A
structure (smiles),measurement,setting,value
"Cc1nc(Nc2ncc(C(=O)Nc3c(C)cccc3Cl)s2)cc(N2CCN(CCO)CC2)n1 [BMS-A, N-(2-chloro-6-methylphenyl)-2-[[6-[4-(2-hydroxyethyl)-1-piperazinyl]-2-methyl-4-pyrimidinyl]amino]-5-thiazolecarboxamide]",IC50,[1]; [17],0.072 µM
same,Classification,[1]; [18],Sensitive (cell lines having an IC50 below the mean IC50 were defined as sensitive to the compound)
same,variation in the IC50 values among the twenty-three lung cell lines,[2],> 100 fold
same,Classification,[3]; [18],Sensitive (cell lines having an IC50 below the mean IC50 were defined as sensitive to the compound)
same,IC50,"[3]; read-out: Mean IC50 (uM) to BMS-A, MTS, 72 hours, mean of 3 tests",0.151 µM
same,IC50,[4],≥ 1.02 µM
same,IC50,[5]; [17],0.037 µM
same,Classification,[5]; [18],Sensitive (cell lines having an IC50 below the mean IC50 were defined as sensitive to the compound)
same,IC50,[6],≥ 1.02 µM
same,IC50,[7]; [19],0.058 µM
same,Classification,[7]; [18],Sensitive (cell lines having an IC50 below the mean IC50 were defined as sensitive to the compound)
same,IC50,[8],≥ 1.02 µM
same,IC50,[9]; [17],0.014 µM
same,Classification,[9]; [18],Sensitive (cell lines having an IC50 below the mean IC50 were defined as sensitive to the compound)
same,IC50,[10]; [20],0.242 µM
same,Classification,[10]; [18],Sensitive (cell lines having an IC50 below the mean IC50 were defined as sensitive to the compound)
same,IC50,[11]; [19],0.215 µM
same,Classification,[11]; [18],Sensitive (cell lines having an IC50 below the mean IC50 were defined as sensitive to the compound)
same,IC50,[12]; [20],0.124 µM
same,Classification,[12]; [18],Sensitive (cell lines having an IC50 below the mean IC50 were defined as sensitive to the compound)
same,Modulated by BMS-A,[13]; Gene No. 12 peroxisomal biogenesis factor 6 (NM_000287),Yes
same,Modulated by BMS-A,"[13]; Gene No. 24 cysteine-rich, angiogenic inducer, 61 (NM_001554)",Yes
same,Modulated by BMS-A,[13]; Gene No. 26 fibroblast growth factor 2 (basic) (NM_002006),Yes
same,Modulated by BMS-A,[13]; Gene No. 35 polymerase I and transcript release factor (NM_012232),Yes
same,Modulated by BMS-A,"[13]; Gene No. 39 ESTs, Weakly similar to hypothetical protein FLJ20489 (AI004009)",Yes
same,Modulated by BMS-A,[13]; Gene No. 45 Rho GDP dissociation inhibitor (GDI) beta (NM_001175),Yes
same,Modulated by BMS-A,[13]; Gene No. 47 FOS-like antigen 1 (NM_005438),Yes
same,Modulated by BMS-A,"[13]; Gene No. 58 collagen, type VI, alpha 1 (NM_001848)",Yes
same,Modulated by BMS-A,[13]; Gene No. 64 KIAA1237 protein (AI148659),Yes
same,Modulated by BMS-A,"[13]; Gene No. 69 a disintegrin-like and metalloprotease (reprolysin type) with thrombospondin type 1 motif, 1 (NM_006988)",Yes
same,Modulated by BMS-A,[13]; Gene No. 72 serum-inducible kinase (NM_006622),Yes
same,Modulated by BMS-A,[13]; Gene No. 90 hypothetical protein FLJ20607 (NM_017899),Yes
same,Modulated by BMS-A,[13]; Gene No. 98 germ cell specific Y-box binding protein (NM_015982),Yes
same,Modulated by BMS-A,[13]; Gene No. 105 J domain containing protein 1 (NM_021800),Yes
same,Modulated by BMS-A,"[13]; Gene No. 110 inhibitor of DNA binding 2, dominant negative helix-loop-helix protein (NM_002166)",Yes
same,Modulated by BMS-A,[13]; Gene No. 115 neuronal cell adhesion molecule (NM_005010),Yes
same,IC50,[14]; [17],0.123 µM
same,Classification,[14]; [18],Sensitive (cell lines having an IC50 below the mean IC50 were defined as sensitive to the compound)
same,IC50,[15]; [17],0.141 µM
same,Classification,[15]; [18],Sensitive (cell lines having an IC50 below the mean IC50 were defined as sensitive to the compound)
same,IC50,[16]; [19],0.507 µM
same,Classification,[16]; [18],Sensitive (cell lines having an IC50 below the mean IC50 were defined as sensitive to the compound)
